According to PMC11173677, “Identification and Evaluation of Olive Phenolics in the Context of Amine Oxidase Enzyme Inhibition and Depression: In Silico Modelling and In Vitro Validation” (Molecules, 2024):

What was measured:
purified MAO-B = molecular target: T1, purified MAO-B (Homo sapiens, UniProt P27338); assay: MAO-B direct screening assay (inhibitor screening kit); type: biochemical; details: purified enzyme; read-out: IC50, inhibition of MAO-B
T1 construct: purchased Sigma-Aldrich MAK296
T1 sequence (P27338 1-520): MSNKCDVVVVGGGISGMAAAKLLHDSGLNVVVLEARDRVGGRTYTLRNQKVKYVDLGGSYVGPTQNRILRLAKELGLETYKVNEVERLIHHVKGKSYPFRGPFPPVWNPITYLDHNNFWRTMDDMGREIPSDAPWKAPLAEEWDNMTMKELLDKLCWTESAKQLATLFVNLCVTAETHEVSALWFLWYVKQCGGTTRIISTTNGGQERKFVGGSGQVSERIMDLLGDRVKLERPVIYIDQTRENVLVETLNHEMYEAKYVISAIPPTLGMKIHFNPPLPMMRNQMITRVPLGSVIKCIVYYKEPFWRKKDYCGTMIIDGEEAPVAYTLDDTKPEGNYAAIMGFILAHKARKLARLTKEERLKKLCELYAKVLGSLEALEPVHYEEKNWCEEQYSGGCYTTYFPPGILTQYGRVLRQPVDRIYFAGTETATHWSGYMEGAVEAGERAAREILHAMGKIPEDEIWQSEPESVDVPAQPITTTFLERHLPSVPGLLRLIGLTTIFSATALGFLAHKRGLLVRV
Protocol: The assays were conducted for MAO-A and MAO-B according to the manufacturer’s instructions.

LSD1 = molecular target: T2, LSD1 (Homo sapiens, UniProt O60341); assay: LSD1 fluorescence coupling enzyme assay (Reaction Biology Corporation); type: biochemical; details: Reaction Biology Corp., 30 min pre-incubation, 10 μM histone H3(1-21)K4me2 peptide substrate; read-out: IC50, LSD1 demethylase activity
T2 construct: Reaction Biology Corporation (performed the assay)
Protocol: The inhibitory activity of HCl 489479, OLC, and OLP was measured using a fluorescence coupling enzyme assay (performed by Reaction Biology Corporation). […] All compounds were pre-incubated for 30 min with the enzyme before the addition of 10 μM histone H3(1-21)K4me2 peptide substrate to start the reaction. Fluorescence was measured using an EnVision Multimode Plate Reader at Ex/Em = 535/590.

MAO-A/B expression = assay: MAO-A/B protein expression in HC- or DEX-stimulated BJ cells (Western blotting); type: cell-based, human; details: 10 μM HC 5 days or 100 μM DEX 7 days, then 50 μM compound; Western blot
Protocol: The BJ cells were subsequently incubated with 10 μM HC or 100 μM DEX to stimulate MAO expression. […] The untreated BJ cells received normal growth medium. The cells were collected, homogenised, and analysed through Western blotting where the expression of MAO-A/B was determined through immunodetection of protein subtypes.

IC50 (purified MAO-B): 32 µM | IC50 (LSD1): 0.12 µM
SMILES: COC(=O)[C@H](O)CC(=O)OCCc1ccc(O)c(O)c1 [OLP, oleohydroxypyretol]
MAO enzyme expression within BJ cells (MAO-A/B expression): Potent inhibition
